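Protocol summary: plate cells (96-well), add compound at 5 concentrations, incubate 48 h, interpolate endpoints linearly. Abbreviation: GI50, concentration required for 50% inhibition of growth.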 Activity calls are given as the source filed them. Rule as the data show it: active = GI50 up to about 1.1 µM and inactive = higher.
Tests used:
Assay in all cases: inhibition of tumour cell growth, NCI panel, 48 h
MDA-N = tested on: MDA-N
NCI/ADR-RES = tested on: NCI/ADR-RES
HOP-62 = tested on: HOP-62
CAKI-1 = tested on: CAKI-1
SR = tested on: SR
PC-3 = tested on: PC-3
SF-268 = tested on: SF-268
HL-60 = tested on: HL-60
NCI-H226 = tested on: NCI-H226
RXF 393 = tested on: RXF 393
OVCAR-8 = tested on: OVCAR-8
KM12 = tested on: KM12
LOX IMVI = tested on: LOX IMVI
Malme-3M = tested on: Malme-3M
UACC-62 = tested on: UACC-62
NCI-H23 = tested on: NCI-H23
NCI-H522 = tested on: NCI-H522
UO-31 = tested on: UO-31
OVCAR-5 = tested on: OVCAR-5
SNB-19 = tested on: SNB-19

Compound | GI50 (MDA-N) | GI50 (NCI/ADR-RES) | GI50 (HOP-62) | GI50 (CAKI-1) | GI50 (SR) | GI50 (PC-3) | GI50 (SF-268) | GI50 (HL-60) | GI50 (NCI-H226) | GI50 (RXF 393) | GI50 (OVCAR-8) | GI50 (KM12) | GI50 (LOX IMVI) | GI50 (Malme-3M) | GI50 (UACC-62) | GI50 (NCI-H23) | GI50 (NCI-H522) | GI50 (UO-31) | GI50 (OVCAR-5) | GI50 (SNB-19)
Cc1ccc(O)c(C2=NNC(c3cccc(Br)c3)C2)c1 (stereo not drawn) | 28.8 µM (inactive) | 48.1 µM (inactive) | 86.3 µM (inactive) | 27.9 µM (inactive) | 27.8 µM (inactive) | 45.8 µM (inactive) | 71 µM (inactive) | 53.3 µM (inactive) | 71.6 µM (inactive) | 56.4 µM (inactive) | 98.9 µM (inactive) | 63.4 µM (inactive) | 38.3 µM (inactive) | > 100 µM (inactive) | 35.7 µM (inactive) | 76.6 µM (inactive) | 28.5 µM (inactive) | 51.5 µM (inactive) | > 100 µM (inactive) | 23 µM (inactive)
COc1cc2c(cc1OC)-c1cc3cc(OC)c(OC)cc3c(=O)n1CC2 | 67.9 µM (inactive) | 21.7 µM (inactive) | 6.5 µM (inactive) | 4.93 µM (inactive) | 2.07 µM (inactive) | 21.2 µM (inactive) | 26.5 µM (inactive) | 17.7 µM (inactive) | 8.75 µM (inactive) | 17.3 µM (inactive) | 41.9 µM (inactive) | > 50.5 µM (inactive) | 13.2 µM (inactive) | 8.04 µM (inactive) | 5.35 µM (inactive) | 46.5 µM (inactive) | 2.76 µM (inactive) | 2.43 µM (inactive) | > 62.2 µM (inactive) | 20.7 µM (inactive)
N=C(N)c1ccc(/N=N\c2c(O)ccc3c2[nH]c2ccccc23)cc1 | 6.3 µM (inactive) | 58.1 µM (inactive) | 13.6 µM (inactive) | > 50.8 µM (inactive) | 2.54 µM (inactive) | 9.73 µM (inactive) | 19.5 µM (inactive) | 1.15 µM (inactive) | 40.5 µM (inactive) | 53.1 µM (inactive) | 2.46 µM (inactive) | 1.85 µM (inactive) | 2.24 µM (inactive) | > 47.3 µM (inactive) | 54.2 µM (inactive) | 10.2 µM (inactive) | > 53.2 µM (inactive) | 35.3 µM (inactive) | 41.5 µM (inactive) | 2.47 µM (inactive)
CCCCCCCCCCC(O)C1CCC(C(O)CCC(O)C2CCC(CCCCCCC[C@H](O)CC3=C[C@@H](C)OC3=O)O2)O1 (stereo partly drawn) | > 10 µM (inactive) | 0.957 µM (active) | > 40.6 µM (inactive) | > 70.8 µM (inactive) | 0.01 µM (active) | > 10 µM (inactive) | 9.23 µM (inactive) | 0.01 µM (active) | 2.64 µM (inactive) | 5.81 µM (inactive) | 10.2 µM (inactive) | 6.1 µM (inactive) | 14.6 µM (inactive) | 29.6 µM (inactive) | 4.02 µM (inactive) | 0.01 µM (active) | 1.34 µM (inactive) | 2.25 µM (inactive) | > 100 µM (inactive) | 3.66 µM (inactive)
CO[C@H]1C[C@H](O[C@H]2CC[C@]3(C=O)[C@H]4CC[C@]5(C)[C@@H](C6=CC(=O)OC6)CC[C@]5(O)[C@@H]4CC[C@]3(O)C2)O[C@H](C)[C@H]1O[C@@H]1O[C@H](CO)[C@@H](O)[C@H](O)[C@H]1O | 3.94e-05 µM (active) | 1.15e-05 µM (active) | 1.26e-05 µM (active) | 1.34e-05 µM (active) | > 0.01 µM (active) | 2.06e-05 µM (active) | 1.19e-05 µM (active) | > 0.01 µM (active) | 7.85e-05 µM (active) | 1.51e-05 µM (active) | 3.34e-05 µM (active) | 9.1e-05 µM (active) | 2.61e-05 µM (active) | 2.7e-05 µM (active) | 6.17e-05 µM (active) | 7.87e-06 µM (active) | 6.87e-06 µM (active) | 3.49e-05 µM (active) | 3.52e-05 µM (active) | 8.93e-05 µM (active)
O=C(Nc1c(C(F)(F)F)cc(-c2ccccc2)[nH]c1=O)N1CCOCC1 | 77.1 µM (inactive) | > 100 µM (inactive) | > 100 µM (inactive) | > 100 µM (inactive) | 54.3 µM (inactive) | > 100 µM (inactive) | > 100 µM (inactive) | 26.9 µM (inactive) | > 100 µM (inactive) | > 100 µM (inactive) | > 100 µM (inactive) | > 100 µM (inactive) | > 100 µM (inactive) | > 100 µM (inactive) | > 100 µM (inactive) | > 100 µM (inactive) | 89.1 µM (inactive) | > 100 µM (inactive) | > 100 µM (inactive) | > 100 µM (inactive)
Cc1ccc(N(C)S(=O)(=O)c2ccc([N+](=O)[O-])cc2)cc1 | > 100 µM (inactive) | 97.9 µM (inactive) | > 100 µM (inactive) | > 100 µM (inactive) | 78.2 µM (inactive) | 34.4 µM (inactive) | > 100 µM (inactive) | 54.6 µM (inactive) | 48.9 µM (inactive) | > 100 µM (inactive) | > 100 µM (inactive) | 74.6 µM (inactive) | > 100 µM (inactive) | 38.2 µM (inactive) | 52.5 µM (inactive) | – | > 100 µM (inactive) | 44.3 µM (inactive) | > 100 µM (inactive) | > 100 µM (inactive)
C=CCN(c1cc(OC)c2[nH]cc(C)c2c1[N+](=O)[O-])S(C)(=O)=O | > 100 µM (inactive) | > 100 µM (inactive) | > 100 µM (inactive) | 2.55 µM (inactive) | > 100 µM (inactive) | > 100 µM (inactive) | > 100 µM (inactive) | > 100 µM (inactive) | > 100 µM (inactive) | > 100 µM (inactive) | > 100 µM (inactive) | > 100 µM (inactive) | > 100 µM (inactive) | > 100 µM (inactive) | > 100 µM (inactive) | > 100 µM (inactive) | > 100 µM (inactive) | > 100 µM (inactive) | > 100 µM (inactive) | > 100 µM (inactive)
O=C(c1ccc(Br)cc1)n1c2ccc(Br)cc2c2nc3ccccc3nc21 | > 100 µM (inactive) | > 100 µM (inactive) | > 100 µM (inactive) | > 100 µM (inactive) | 83.2 µM (inactive) | > 100 µM (inactive) | > 100 µM (inactive) | 83.6 µM (inactive) | > 100 µM (inactive) | > 100 µM (inactive) | > 100 µM (inactive) | > 100 µM (inactive) | > 100 µM (inactive) | > 100 µM (inactive) | > 100 µM (inactive) | > 100 µM (inactive) | > 100 µM (inactive) | > 100 µM (inactive) | > 100 µM (inactive) | > 100 µM (inactive)
COC(=O)NC(Nc1ccc(C)cc1)(C(F)(F)F)C(F)(F)F | > 100 µM (inactive) | > 100 µM (inactive) | > 100 µM (inactive) | > 100 µM (inactive) | 61.2 µM (inactive) | > 100 µM (inactive) | > 100 µM (inactive) | > 100 µM (inactive) | > 100 µM (inactive) | 0.172 µM (active) | > 100 µM (inactive) | > 100 µM (inactive) | > 100 µM (inactive) | > 100 µM (inactive) | > 100 µM (inactive) | > 100 µM (inactive) | > 100 µM (inactive) | 18.3 µM (inactive) | > 100 µM (inactive) | > 100 µM (inactive)
O=C(O)c1cc(O)c2c(c1)C([C@@H]1c3cccc(O)c3C(=O)c3c(O)cc(C(=O)O)cc31)c1cccc(O)c1C2=O (stereo partly drawn) | 20.3 µM (inactive) | 43.8 µM (inactive) | > 10 µM (inactive) | > 100 µM (inactive) | 39.3 µM (inactive) | 36.1 µM (inactive) | 31.4 µM (inactive) | 29.9 µM (inactive) | 33.7 µM (inactive) | 28.2 µM (inactive) | 33.4 µM (inactive) | 20.5 µM (inactive) | 15.8 µM (inactive) | 23.7 µM (inactive) | 31 µM (inactive) | 30.4 µM (inactive) | 19.7 µM (inactive) | > 100 µM (inactive) | > 100 µM (inactive) | 57 µM (inactive)
C=C(C)CNCC(=C)C.Oc1c(Cl)c(Cl)c(Cl)c(Cl)c1Cl | 18.7 µM (inactive) | 23.8 µM (inactive) | 22 µM (inactive) | 21.4 µM (inactive) | 26.6 µM (inactive) | 22.8 µM (inactive) | 33.9 µM (inactive) | 3.15 µM (inactive) | 13.9 µM (inactive) | 20 µM (inactive) | 31.9 µM (inactive) | 20.4 µM (inactive) | 22.3 µM (inactive) | 17.4 µM (inactive) | 18.7 µM (inactive) | 22.3 µM (inactive) | 22 µM (inactive) | 15.7 µM (inactive) | 17.1 µM (inactive) | 32.1 µM (inactive)
CN1CCC(OC(=O)Oc2ccccc2)(c2ccccc2)CC1 | 17.6 µM (inactive) | 16.6 µM (inactive) | 15.5 µM (inactive) | 77.3 µM (inactive) | 15.9 µM (inactive) | 18 µM (inactive) | 37.1 µM (inactive) | 16.5 µM (inactive) | 22.7 µM (inactive) | 37.3 µM (inactive) | 17.5 µM (inactive) | 17.9 µM (inactive) | 17.8 µM (inactive) | 17.7 µM (inactive) | 21.5 µM (inactive) | 14.4 µM (inactive) | 24 µM (inactive) | 19.6 µM (inactive) | 25.4 µM (inactive) | 25.4 µM (inactive)
CCc1n[nH]c(=O)n1-c1ccncc1 | > 100 µM (inactive) | > 100 µM (inactive) | > 100 µM (inactive) | > 100 µM (inactive) | > 100 µM (inactive) | > 100 µM (inactive) | > 100 µM (inactive) | > 100 µM (inactive) | > 100 µM (inactive) | > 100 µM (inactive) | > 100 µM (inactive) | > 100 µM (inactive) | > 100 µM (inactive) | > 100 µM (inactive) | – | > 100 µM (inactive) | > 100 µM (inactive) | > 100 µM (inactive) | > 100 µM (inactive) | > 100 µM (inactive)

Source: ChEMBL document CHEMBL1201862, “PubChem BioAssay data set” (2004)
